According to PubChem BioAssay AID1963978 (Molecular Pharmacology Branch, DTP, NCI, 2024):
Where “and” joins values, the source holds several entries; their conditions need not be identical. Identical values can stand only once.

Test system: 616215-338-R-J1-PDC spheroids with HUVEC/MSC, viability
Test: Anticancer human tumor 616215-338-R-J1-PDC patient-derived colon adenocarcinoma cell line growth inhibition [PI3K]
Details: for viability, T/C: stronger effect = lower value
Description: Combinatorial screen of targeted agents with the PI3K inhibitors inavolisib, alpelisib, duvelisib, and copanlisib in multi-cell type tumor spheroids
A high-throughput screen of multi-cell type tumor spheroids was designed to identify active combinations of targeted small molecules and PI3K pathway inhibitors. Complex spheroids include a stromal component modeled by human endothelial cells (HUVEC) and fibroblasts modeled by human mesenchymal stem cells (MSCs). The concentration ranges selected for each drug and investigational agent were based upon clinically achievable concentrations if the clinical Cmax of the agent was known.
Compounds. The drugs and investigational agents: inavolisib (NSC800729), alpelisib (NSC765974), duvelisib (NSC772469), copanlisib (NSC816437), ipatasertib (NSC767898), afuresertib (NSC778305), talazoparib (NSC767125), sapanisertib (NSC764658), selumetinib (NSC741078), tovorafenib (DAY101, NSC766906), vemurafenib (NSC761431), ravoxertinib (NSC781343), sotorasib (NSC818433), MRTX1133 (NSC 836407), abemaciclib (NSC 768073), palbociclib (NSC758247), venetoclax (NSC 766270), SY5609 (NSC837396), enzalutamide (NSC755605), and darolutamide (NSC825331), were obtained from the National Cancer Institute (NCI) Developmental Therapeutics Program Chemical Repository. The FDA-approved anticancer drug set is available from the NCI Developmental Therapeutics Program. […] The stock solutions were prepared in dimethyl sulfoxide (DMSO, Sigma-Aldrich, St. Louis, MO, cat. D2650) at 800-fold the tested concentration and stored at -70 degrees C prior to their use. All drugs and investigational agents were tested over a range starting from a high concentration at or near the clinical Cmax and decreasing in half-log increments. If the clinical Cmax for an agent had not been determined, the highest concentration tested was 10 microM.
Cell Culture. All cells were maintained in an incubator at 37 degrees C and 5% CO2 with 95% humidity. The PDC lines were cultured according to standard operating procedures established by the NCI PDMR (https://pdmr.cancer.gov/sops/default.htm). All PDCs were thawed and cultured in Matrigel-coated flasks prepared with a working solution of 1X Ham's F-12 nutrient mix, without supplementation (Invitrogen, Waltham, MA, cat. 11765054), 100 U/mL penicillin-streptomycin (Invitrogen, cat. 15140122), and 2.5% Matrigel (Corning Inc., Corning, NY, cat. 354248) for the first three passages. The 354836-022-R-J1-PDC, 475296-252-R-J1-PDC, and 997726-040-R-J2-PDC lines were cultured in 6A media, which includes advanced DMEM/F-12 (Thermo Fisher Scientific, cat. 12634028), 10 mM HEPES (Thermo Fisher Scientific, cat. 15630080), 1X GlutaMAX supplement (Thermo Fisher Scientific, cat. 35050061), 0.1 mg/mL primocin (InvivoGen, San Diego, CA, cat. ant-pm-2), 10% defined fetal bovine serum, heat inactivated (HyClone Laboratories Inc., Logan, UT, cat. SH30070.03HI), 50% L-WRN conditioned media (ATCC, cat. CRL-3276), 1.25 mM N-Acetyl-L-cysteine (Sigma-Aldrich, cat. A9165), 10 mM nicotinamide (Sigma-Aldrich, cat. N0636), 1X B-27 supplement (Thermo Fisher Scientific, cat. 17504044), 1X N-2 supplement (Thermo Fisher Scientific, cat. 17502048), and 10 microM Y-27632 dihydrochloride (Tocris Bioscience, Bristol, United Kingdom, cat. 1254). The 624824-186-R-J2-PDC line was cultured in 6C/Colon 1B media, which includes all 6A media components plus 50 ng/mL human EGF recombinant protein (Thermo Fisher Scientific, cat. PHG0311). […]

[1] = compound alone, run of 05/08/2023
[2] = compound alone, run of 05/09/2023
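Note: spheroids exposed to agents for seven days before the viability read.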

SMILES	viability, T/C (compound 0.0316 µM)	viability, T/C (compound 0.1 µM)	viability, T/C (compound 0.316 µM)	viability, T/C (compound 1 µM)	viability, T/C (compound 3.16 µM)	viability, T/C (compound 10 µM)	IC50 (curve of compound)	viability, T/C (compound 0.00316 µM)	viability, T/C (compound 0.01 µM)	other results
C#Cc1c(F)ccc2cc(O)cc(-c3ncc4c(N5CC6CCC(C5)N6)nc(OCC56CCCN5CC(F)C6)nc4c3F)c12 (configuration not stated)	97.3% [middle of 4 runs]	96.7% [middle of 4 runs]	105% [middle of 4 runs]	96.1% [middle of 4 runs]	95% [middle of 4 runs]	83% [middle of 4 runs]	> 10 µM			
C=CC(=O)N1CCN(c2nc(=O)n(-c3c(C)ccnc3C(C)C)c3nc(-c4c(O)cccc4F)c(F)cc23)C(C)C1 (configuration not stated)	96.2% [middle of 4 runs]	92% [middle of 4 runs]	99% [middle of 4 runs]	99.8% [middle of 4 runs]	93% [middle of 4 runs]		> 10 µM			
CC(=O)c1c(C)c2cnc(Nc3ccc(N4CCNCC4)cn3)nc2n(C2CCCC2)c1=O	97.5% [middle of 4 runs]	115% [middle of 4 runs]					> 0.1 µM	98.5% [middle of 4 runs]	112% [middle of 4 runs]	viability, T/C (compound 0.000316 µM): 96.5% [middle of 4 runs]; viability, T/C (compound 0.001 µM): 98.8% [middle of 4 runs]
CC(C)NCC(C(=O)N1CCN(c2ncnc3c2C(C)CC3O)CC1)c1ccc(Cl)cc1 (configuration not stated)	98.8% [middle of 4 runs]	94.3% [middle of 4 runs]	95.1% [middle of 4 runs]	102% [middle of 4 runs]	77.5% [middle of 4 runs]		6.53 µM [middle of 4 runs]			
CC(C)n1nc(-c2ccc3oc(N)nc3c2)c2c(N)ncnc21	121% [middle of 4 runs]	94.5% [middle of 4 runs]					> 0.1 µM	100% [middle of 4 runs]	107% [middle of 4 runs]	viability, T/C (compound 0.000316 µM): 95.1% [middle of 4 runs]; viability, T/C (compound 0.001 µM): 95.7% [middle of 4 runs]
CC(Cn1ccc(-c2ccc(C#N)c(Cl)c2)n1)NC(=O)c1cc(C(C)O)[nH]n1 (configuration not stated)	99.3% [middle of 4 runs]		97.2% [middle of 4 runs]	101% [middle of 4 runs]		101% [middle of 4 runs]	> 10 µM			
CC(Nc1ccc2c(c1)OCCn1cc(N3C(=O)OCC3C(F)F)nc1-2)C(N)=O (configuration not stated)	100% [middle of 8 runs]	97.1% [middle of 8 runs]	98.8% [middle of 8 runs]	105% [middle of 8 runs]				94.5% [middle of 8 runs]	96.4% [middle of 8 runs]	IC50 [1]: > 1 µM
CC(Nc1ncnc2nc[nH]c12)c1cc2cccc(Cl)c2c(=O)n1-c1ccccc1 (configuration not stated)	103% [middle of 8 runs]	96.5% [middle of 8 runs]	99.3% [middle of 8 runs]	105% [middle of 8 runs]	102% [middle of 8 runs]	105% [middle of 8 runs]				IC50 [2]: > 10 µM
CCCS(=O)(=O)Nc1ccc(F)c(C(=O)c2c[nH]c3ncc(-c4ccc(Cl)cc4)cc23)c1F	95.5% [middle of 4 runs]	93.5% [middle of 4 runs]	97.2% [middle of 4 runs]	92.5% [middle of 4 runs]		2.66% [middle of 4 runs]	4.34 µM and 3.87 µM and 5.17 µM			
CCN1CCN(Cc2ccc(Nc3ncc(F)c(-c4cc(F)c5nc(C)n(C(C)C)c5c4)n3)nc2)CC1	97.4% [middle of 4 runs]	114% and 104% (2×) and 116%					> 1 µM	98.2% [middle of 4 runs]	92.2% [middle of 4 runs]	
CNC(=O)c1ccc(N2C(=S)N(c3ccc(C#N)c(C(F)(F)F)c3)C(=O)C2(C)C)cc1F	100% [middle of 4 runs]	102% [middle of 4 runs]	100% [middle of 4 runs]	93.9% and 100% and 102%	101% [middle of 4 runs]	104% [middle of 4 runs]	> 10 µM			
COc1c(OCCCN2CCOCC2)ccc2c3n(c(=NC(=O)c4cnc(N)nc4)nc12)CCN3	96.2% [middle of 8 runs]	91.2% [middle of 8 runs]	45% [middle of 8 runs]	26.3% [middle of 8 runs]				93.2% [middle of 8 runs]	96.5% [middle of 8 runs]	IC50 [2]: 279 nM [middle of 7 runs]
C[C@@H](NC(=O)c1ncnc(N)c1Cl)c1ncc(C(=O)Nc2cc(C(F)(F)F)c(Cl)cn2)s1	103% [middle of 4 runs]	92.3% [middle of 4 runs]	112% [middle of 4 runs]	106% [middle of 4 runs]	109% [middle of 4 runs]	86.8% [middle of 4 runs]	> 10 µM			
Cc1nc(NC(=O)N2CCCC2C(N)=O)sc1-c1ccnc(C(C)(C)C(F)(F)F)c1 (configuration not stated)	97.3% [middle of 8 runs]	102% [middle of 8 runs]	106% [middle of 8 runs]	108% [middle of 8 runs]	100% [middle of 8 runs]	99.5% [middle of 8 runs]				IC50 [1]: > 10 µM
Cn1cnc2c(F)c(Nc3ccc(Br)cc3Cl)c(C(=O)NOCCO)cc21										viability, T/C (compound 0.00949 µM): 96.1% [middle of 4 runs]; viability, T/C (compound 0.03 µM): 94.7% [middle of 4 runs]; viability, T/C (compound 0.0949 µM): 92.1% [middle of 4 runs]; viability, T/C (compound 0.3 µM): 80.6% [middle of 4 runs]; viability, T/C (compound 0.949 µM): 58.5% [middle of 4 runs]; viability, T/C (compound 3 µM): 45.3% [middle of 4 runs]
Cn1ncc(Cl)c1-c1cc(C(=O)NC(CN)Cc2cccc(F)c2)sc1Cl (configuration not stated)	94% [middle of 4 runs]	97.8% [middle of 4 runs]	96.6% [middle of 4 runs]	97.7% [middle of 4 runs]		35.6% [middle of 4 runs]	6.53 µM [middle of 4 runs]			
Cn1nccc1Nc1nccc(-c2ccn(C(CO)c3ccc(Cl)c(F)c3)c(=O)c2)n1 (configuration not stated)	96.3% [middle of 4 runs]	101% [middle of 4 runs]	90.4% [middle of 4 runs]	66.4% [middle of 4 runs]	56.4% [middle of 4 runs]	40.1% [middle of 4 runs]	3.91 µM [middle of 4 runs]			
Cn1ncnc1[C@H]1c2n[nH]c(=O)c3cc(F)cc(c23)N[C@@H]1c1ccc(F)cc1	102% [middle of 4 runs]	94.5% [middle of 4 runs]					> 0.1 µM	100% [middle of 4 runs]	102% [middle of 4 runs]	viability, T/C (compound 0.000316 µM): 95% [middle of 4 runs]; viability, T/C (compound 0.001 µM): 97.2% [middle of 4 runs]
